Test results reported in US8633251B2, “Derivatives of aminoalkanols, method of obtaining of aminoalkanols and their use” (Uniwersytet Jagiellonski, priority 2008, dated 2014).
Structures can show the parent of a compound that is named as a salt. Where two headings read alike, the source gives them in different places. Blank lines part the entries; values can stand above or below the compound they belong to.

Assays:
[1] = test system: pentylenetetrazol-induced seizures; assay: Subcutaneous Metrazol Test (ScMet), mice; format: in vivo
Description: (§1) In order to define anticonvulsant activity, screening tests were performed, using animal models of seizures. […] The tests were based on administration of a compound to an animal and after certain time inducing state similar to epilepsy attack in human. Each substance (after dissolving in methylcellulose) was normally tested in doses 30, 100, and 300 mg/kg body weight (b.w.) (mice) or in 30 and 50 mg/kg b.w. (rats) in two possible routes of administration: intraperitoneal (i.p.) or oral (p.o.). Appropriate tests were performed 0.5 and 4 h after administration of the compound. […] (mice) the tests were also performed in doses 10 and 3 mg/kg b.w.
Subcutaneous Metrazol Test (ScMet) is a chemical test, where compounds are tested for activity in absence seizures (petit mal epilepsy). Pentetrazol (metrazol) is considered to block chloride channel in the GABAA receptor complex, therefore at a certain dose in animals it causes myoclonic jerks, next—clonic seizures, and then tonic seizures. The procedure consists in administration of a tested compound and after 0.5 or 4 h subcutaneous administration of pentylenetetrazol in the dose of 85 mg/kg b.w. (mice) or 70 mg/kg b.w. (rats) in a 0.85% solution in 0.9% NaCl. […] Normally the test is performed in single animals.

[2] = test system: maximal electroshock seizures; assay: Maximum Electroshock Seizure (MES) test, mice; format: in vivo; details: mice; for responders at 30 mg/kg / responders at 100 mg/kg / responders at 300 mg/kg: Mus musculus; for responders at 30 mg/kg / responders at 300 mg/kg: read-out: MES, No. of protected animals/No. of used animals; for responders at 100 mg/kg: read-out: MES, No. of protected animals/No. of used animals (converted)
In short: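 Mice received compound in methylcellulose i.p. or p.o. at 30, 100 and 300 mg/kg, with some tests at 10 and 3 mg/kg. At 0.5 or 4 h, after tetracaine eye-drops, current was delivered through corneal electrodes (60 Hz, 0.2 s, 50 mA). Groups were one mouse at 30 and 300 mg/kg and three at 100 mg/kg.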

[3] = test system: neurotoxicity (rotarod); assay: Neurotoxicity test (TOX), rotarod, mice; format: in vivo
[4] = test system: maximal electroshock seizures; assay: Maximum Electroshock Seizure (MES) test, rats; format: in vivo; details: 0.25 h
Description: as §1, with “Appropriate tests were performed 0.5 and 4 h after administration of the compound.” left out
Maximum Electroshock Seizure (MES) test is an electric test, verifying activity towards generalized tonic-clonic seizures (grand mal epilepsy). […] Its procedure consists in administration to an animal a mentioned dose, […] (after anesthetic eye-drops: 0.5% tetracaine hydrochloride in 0.9% NaCl) and turning on electric current (60 Hz, 0.2 s, 50 mA (mice) or 150 mA (rats)). […]

[5] = mice, dose 100 mg/kg b.w., time 0.5 h
[6] = mice, dose 100 mg/kg b.w., time 4 h
[7] = mice, dose 300 mg/kg b.w., time 0.5 h
[8] = mice, dose 100 mg/kg b.w., 0.5 h
[9] = mice, dose 300 mg/kg b.w., 0.5 h

Compound: Cc1cccc(C)c1OCCNC(C)(C)CCO (as salt: hydrochloride) [Compound 15, 3N-[(2,6-dimethylphenoxy)ethyl]amino-3-methyl-1-butanol hydrochloride]
melting point: 170 to 172 °C

Compound: Cc1cccc(C)c1OCCN[C@H](CO)C(C)C (as salt: hydrochloride) [Compound 16, L-2N-[(2,6-dimethylphenoxy)ethyl]amino-3-methyl-1-butanol hydrochloride]
melting point: 162 to 164 °C

Compound: Cc1cccc(C)c1OCCNCCCCCO (as salt: hydrochloride) [Compound 17, 5N-[(2,6-dimethylphenoxy)ethyl]amino-1-pentanol hydrochloride]
melting point: 138 to 140 °C

Compound: Cc1cccc(C)c1OCCCN[C@H](C)CO (as salt: hydrochloride) [Compound 52, R-(−)-2N-[(2,6-dimethylphenoxy)propyl]amino-1-propanol hydrochloride]
melting point: 119 to 120 °C

Compound: CCC(O)CNCCCOc1c(C)cccc1C (racemic) [Compound 54, R,S-1N-[(2,6-dimethylphenoxy)propyl]amino-2-butanol]
ScMet, No. of protected animals/No. of used animals ([1]; dose 30 mg/kg b.w., 0.5 h): 1/5
ScMet, No. of protected animals/No. of used animals ([1]; dose 30 mg/kg b.w., 4 h): 1/1
MES, No. of protected animals/No. of used animals ([2]; dose 100 mg/kg b.w., 0.5 h): 2/2
TOX, No. of animals exhibiting motor impairment/no. of used animals ([3]; mouse, in vivo, 30 mg/kg): 1/4
TOX, No. of animals exhibiting motor impairment/no. of used animals ([3]; mouse, in vivo, 300 mg/kg): 4/4

melting point: 182 to 184 °C
Compound: CCC(NC(=O)COc1c(C)cccc1C)C(N)=O (racemic) [Compound 66, D,L-2N-[(2,6-dimethylphenoxy)acetyl]aminobutyramide]

Compound: Cc1cccc(OCCNCC(O)c2ccccc2)c1C (centres unmarked) [Compound 4, R,S-2N-[(2,3-dimethylphenoxy)ethyl]amino-1-phenylethanol]
ScMet, No. of protected animals/No. of used animals ([1]; dose 30 mg/kg b.w., time 0.5 h): 1/5
TOX, No. of animals exhibiting motor impairment/no. of used animals [3, 5]: 4/8
TOX, No. of animals exhibiting motor impairment/no. of used animals [3, 6]: 1/4
TOX, No. of animals exhibiting motor impairment/no. of used animals [3, 7]: 3/4

Compound: Cc1cccc(C)c1OCCNC[C@@H](C)O [Compound 10, R-(−)-1N-[(2,6-dimethylphenoxy)ethyl]amino-2-propanol]
responders at 30 mg/kg ([2]; dose 30 mg/kg b.w., time 0.5 h): 100%
responders at 100 mg/kg ([2]; dose 100 mg/kg b.w., time 4 h): 100%
melting point: 76 to 77 °C
TOX, No. of animals exhibiting motor impairment/no. of used animals ([3]; mice, dose 30 mg/kg b.w., time 0.5 h): 1/4
TOX, No. of animals exhibiting motor impairment/no. of used animals [3, 5]: 8/8
TOX, No. of animals exhibiting motor impairment/no. of used animals [3, 6]: 1/3
TOX, No. of animals exhibiting motor impairment/no. of used animals [3, 7]: 4/4

Compound: Cc1cccc(C)c1OCCNC(C)CO (centres unmarked) [Compound 11, R,S-2N-[(2,6-dimethylphenoxy)ethyl]amino-1-propanol]
MES, No. of protected animals/No. of used animals ([2]; dose 30 mg/kg b.w., time 0.5 h): 1/1
ED50 (MES, rats, p.o., 0.25 h) ([4]; p.o.): 47.03 mg/kg b.w.
TOX, No. of animals exhibiting motor impairment/no. of used animals ([3]; mouse, in vivo, 30 mg/kg): 2/4
TOX, No. of animals exhibiting motor impairment/no. of used animals ([3]; mouse, in vivo, 100 mg/kg): 8/8
TOX, No. of animals exhibiting motor impairment/no. of used animals ([3]; mouse, in vivo, 300 mg/kg): 4/4

Compound: Cc1cccc(C)c1OCCN[C@@H](C)CO [Compound 13, S-(+)-2N-[(2,6-dimethylphenoxy)ethyl]amino-1-propanol]
MES, No. of protected animals/No. of used animals ([2]; dose 10 mg/kg b.w., time 0.5 h): 2/4
MES, No. of protected animals/No. of used animals ([2]; dose 30 mg/kg b.w., time 0.5 h): 1/1
ED50 (MES, mice, i.p., 0.25 h) ([2]; i.p., 0.25 h): 8.59 mg/kg b.w.
ED50 (MES, rats, i.p., 0.25 h) ([4]; i.p.): 6.50 mg/kg b.w.
TOX, No. of animals exhibiting motor impairment/no. of used animals ([3]; mouse, in vivo, 100 mg/kg): 8/8
TOX, No. of animals exhibiting motor impairment/no. of used animals ([3]; mouse, in vivo, 300 mg/kg): 4/4

Compound: Cc1cccc(C)c1OCCNC[C@H](O)c1ccccc1 [Compound 20, R-(−)-2N-[(2,6-dimethylphenoxy)ethyl]amino-1-phenylethanol]
responders at 30 mg/kg ([2]; dose 30 mg/kg b.w., time 0.5 h): 100%
melting point: 78 to 80 °C
TOX, No. of animals exhibiting motor impairment/no. of used animals [3, 5]: 8/8
TOX, No. of animals exhibiting motor impairment/no. of used animals [3, 7]: 4/4

Compound: Cc1cccc(OCCCNC(C)(C)CO)c1C [Compound 47, 2N-[(2,3-dimethylphenoxy)propyl]amino-2-methyl-1-propanol]
responders at 100 mg/kg ([2]; dose 100 mg/kg b.w., time 0.5 h): 100%
melting point: 128 to 130 °C
TOX, No. of animals exhibiting motor impairment/no. of used animals [3, 5]: 8/8
TOX, No. of animals exhibiting motor impairment/no. of used animals [3, 6]: 4/4
TOX, No. of animals exhibiting motor impairment/no. of used animals [3, 7]: 4/4

Compound: Cc1cccc(C)c1OCCCNC(C)(C)CO [Compound 53, 2N-[(2,6-dimethylphenoxy)propyl]amino-2-methyl-1-propanol]
responders at 100 mg/kg ([2]; dose 100 mg/kg b.w., 0.5 h): 100%
melting point: 73 to 75 °C
TOX, No. of animals exhibiting motor impairment/no. of used animals ([3]; mice, dose 30 mg/kg b.w., 0.5 h): 1/4
TOX, No. of animals exhibiting motor impairment/no. of used animals [3, 8]: 8/8
TOX, No. of animals exhibiting motor impairment/no. of used animals [3, 9]: 4/4

Compound: Cc1cccc(C)c1OCC(=O)N(C)CCO [Compound 59, R,S-2N-[(2,6-dimethylphenoxy)acetyl]-2N-methylamino-1-ethanol]
ScMet, No. of protected animals/No. of used animals ([1]; dose 300 mg/kg b.w., 0.5 h): 1/1
MES, No. of protected animals/No. of used animals ([2]; dose 300 mg/kg b.w., 0.5 h): 1/1

Compound: Cc1cccc(C)c1OCC(=O)N[C@H]1CC[C@H](O)CC1 [Compound 64, trans-4N-[(2,6-dimethylphenoxy)acetyl]amino-1-cyclohexanol]
responders at 300 mg/kg ([1]; Mus musculus, sc, dose 300 mg/kg b.w., 0.5 h, read-out: ScMet, No. of protected animals/No. of used animals): 100%
responders at 100 mg/kg ([2]; dose 100 mg/kg b.w., 0.5 h): 100%
responders at 300 mg/kg ([2]; dose 300 mg/kg b.w., 0.5 h): 100%
melting point: 161 to 162 °C
TOX, No. of animals exhibiting motor impairment/no. of used animals [3, 8]: 7/8
TOX, No. of animals exhibiting motor impairment/no. of used animals [3, 9]: 4/4

Compound: Cc1cccc(C)c1OCC(=O)N[C@H](C)C(N)=O [Compound 65, D-2N-[(2,6-dimethylphenoxy)acetyl]aminopropionamide]
responders at 30 mg/kg ([1]; Mus musculus, sc, dose 30 mg/kg b.w., 4 h, read-out: ScMet, No. of protected animals/No. of used animals (converted)): 20%
responders at 300 mg/kg ([2]; dose 300 mg/kg b.w., 0.5 h): 100%
melting point: 177 to 178 °C
TOX, No. of animals exhibiting motor impairment/no. of used animals [3, 8]: 2/8
TOX, No. of animals exhibiting motor impairment/no. of used animals [3, 9]: 1/4

Compound: Cc1cccc(Cl)c1OCC(=O)NCC(C)O (centres unmarked) [Compound 68, R,S-1N-[(2-chlor-6-methylphenoxy)acetyl]amino-2-propanol]
ScMet, No. of protected animals/No. of used animals ([1]; dose 300 mg/kg b.w., 0.5 h): 1/1
MES, No. of protected animals/No. of used animals ([2]; dose 300 mg/kg b.w., 0.5 h): 1/1
ED50 (MES, mice, i.p.) ([2]; i.p., time not given): 97.93 mg/kg b.w.
TOX, No. of animals exhibiting motor impairment/no. of used animals [3, 9]: 4/4

Compound: CCC(O)CNC(=O)COc1c(C)cccc1Cl (centres unmarked) [Compound 72, R,S-1N-[(2-chlor-6-methylphenoxy)acetyl]amino-2-butanol]
ScMet, No. of protected animals/No. of used animals ([1]; dose 300 mg/kg b.w., 0.5 h): 1/1
MES, No. of protected animals/No. of used animals ([2]; dose 300 mg/kg b.w., 0.5 h): 1/1
TOX, No. of animals exhibiting motor impairment/no. of used animals [3, 9]: 4/4

Compound: CCC(CO)NC(=O)COc1c(C)cccc1Cl (centres unmarked) [Compound 73, R,S-2N-[(2-chlor-6-methylphenoxy)acetyl]amino-1-butanol]
ScMet, No. of protected animals/No. of used animals ([1]; dose 100 mg/kg b.w., 0.5 h): 3/5
ScMet, No. of protected animals/No. of used animals ([1]; dose 300 mg/kg b.w., 0.5 h): 1/1
MES, No. of protected animals/No. of used animals ([2]; dose 300 mg/kg b.w., 0.5 h): 1/1
MES, No. of protected animals/No. of used animals ([2]; dose 300 mg/kg b.w., 4 h): 1/1
TOX, No. of animals exhibiting motor impairment/no. of used animals [3, 9]: 4/4

Compound: Cc1cc(Cl)ccc1OCC(=O)NCC(C)O (centres unmarked) [Compound 80, R,S-1N-[(4-chlor-2-methylphenoxy)acetyl]amino-2-propanol]
ScMet, No. of protected animals/No. of used animals ([1]; dose 300 mg/kg b.w., 0.5 h): 1/1
MES, No. of protected animals/No. of used animals ([2]; dose 300 mg/kg b.w., 0.5 h): 1/1
TOX, No. of animals exhibiting motor impairment/no. of used animals [3, 9]: 4/4

Compound: CCC(O)CNC(=O)COc1ccc(Cl)cc1C (centres unmarked) [Compound 81, R,S-1N-[(4-chlor-2-methylphenoxy)acetyl]amino-2-butanol]
ScMet, No. of protected animals/No. of used animals ([1]; dose 300 mg/kg b.w., 0.5 h): 1/1
MES, No. of protected animals/No. of used animals ([2]; dose 300 mg/kg b.w., 0.5 h): 1/1
TOX, No. of animals exhibiting motor impairment/no. of used animals [3, 9]: 4/4
